Source: the NIST ThermoML archive (doi:10.1021/acs.jced.5b00197)

Test: refractive index (other wavelength) (dimensionless); xn = mol fraction of the nth substance listed
Details: 94.64 kPa, Liquid, Standard Abbe refractometry

CC(=O)O [acetic acid] + O
refractive index
Details	Wavelength=404.7 nm	Wavelength=435.8 nm	Wavelength=486.1 nm	Wavelength=546.1 nm	Wavelength=587.6 nm	Wavelength=632.8 nm	Wavelength=644 nm	Wavelength=706.5 nm
293.15 K, x1 = 0.0322	1.35074	1.34808	1.34498	1.34229	1.34084	1.3395	1.33919	1.33766
293.15 K, x1 = 0.0697	1.35808	1.35532	1.35218	1.3494	1.34797	1.34664	1.34631	1.34473
293.15 K, x1 = 0.114	1.36535	1.36252	1.35924	1.35643	1.35495	1.35355	1.35322	1.35158
293.15 K, x1 = 0.167	1.37162	1.36869	1.36533	1.36247	1.36095	1.35953	1.35919	1.35756
293.15 K, x1 = 0.231	1.37678	1.3738	1.37034	1.36744	1.36589	1.36444	1.36411	1.36247
293.15 K, x1 = 0.31	1.38181	1.37874	1.37522	1.37227	1.37068	1.36921	1.36888	1.36724
293.15 K, x1 = 0.412	1.38536	1.38226	1.37869	1.37571	1.37412	1.37264	1.3723	1.37065
293.15 K, x1 = 0.545	1.38847	1.3853	1.38169	1.37868	1.37709	1.37561	1.37526	1.37359
293.15 K, x1 = 0.629	1.38867	1.3855	1.38192	1.37889	1.3773	1.37583	1.37548	1.37381
293.15 K, x1 = 0.729	1.38865	1.38547	1.38189	1.37886	1.37727	1.37581	1.37547	1.37382
293.15 K, x1 = 0.85	1.38695	1.38381	1.38021	1.37723	1.37565	1.37419	1.37386	1.37224
293.15 K, x1 = 1	1.38345	1.38034	1.37681	1.37386	1.3723	1.37087	1.37055	1.36896
298.15 K, x1 = 0.0322	1.34997	1.34733	1.34424	1.34156	1.34012	1.33879	1.33848	1.33695
298.15 K, x1 = 0.0697	1.35708	1.35435	1.35121	1.34845	1.347	1.34567	1.34535	1.34377
298.15 K, x1 = 0.114	1.36413	1.36131	1.35805	1.35525	1.35378	1.35239	1.35206	1.35044
298.15 K, x1 = 0.167	1.37026	1.36733	1.36401	1.36114	1.35963	1.35823	1.3579	1.35625
298.15 K, x1 = 0.231	1.37523	1.37226	1.36885	1.36595	1.36441	1.36298	1.36265	1.36102
298.15 K, x1 = 0.31	1.38012	1.37707	1.37358	1.37063	1.36906	1.36762	1.36728	1.36564
298.15 K, x1 = 0.412	1.38357	1.38048	1.37695	1.37398	1.37239	1.37092	1.37059	1.36894
298.15 K, x1 = 0.545	1.38656	1.38342	1.37983	1.37683	1.37525	1.37378	1.37344	1.37178
298.15 K, x1 = 0.629	1.38681	1.38367	1.38008	1.37709	1.37551	1.37404	1.3737	1.37205
298.15 K, x1 = 0.729	1.38668	1.38352	1.37994	1.37695	1.37536	1.3739	1.37357	1.37193
298.15 K, x1 = 0.85	1.38488	1.38174	1.37819	1.37522	1.37365	1.37221	1.37188	1.37027
298.15 K, x1 = 1	1.38126	1.37816	1.37466	1.37174	1.37018	1.36876	1.36844	1.36686
303.15 K, x1 = 0.0322	1.34916	1.34654	1.34343	1.34077	1.33932	1.338	1.3377	1.3362
303.15 K, x1 = 0.0697	1.35605	1.35332	1.35017	1.34743	1.34598	1.34464	1.34432	1.34275
303.15 K, x1 = 0.114	1.36289	1.36008	1.35684	1.35405	1.35256	1.35117	1.35085	1.34926
303.15 K, x1 = 0.167	1.36886	1.36596	1.36261	1.35979	1.35827	1.35686	1.35653	1.35492
303.15 K, x1 = 0.231	1.37369	1.37074	1.36734	1.36446	1.36293	1.36151	1.36118	1.35956
303.15 K, x1 = 0.31	1.37842	1.37539	1.37192	1.36899	1.36742	1.36598	1.36565	1.36402
303.15 K, x1 = 0.412	1.38176	1.37869	1.37516	1.37223	1.37064	1.36917	1.36884	1.36722
303.15 K, x1 = 0.545	1.38463	1.3815	1.37794	1.37497	1.37337	1.3719	1.37157	1.36995
303.15 K, x1 = 0.629	1.38481	1.38167	1.37813	1.37513	1.37355	1.3721	1.37176	1.37013
303.15 K, x1 = 0.729	1.38467	1.38153	1.37797	1.375	1.37341	1.37196	1.37163	1.37002
303.15 K, x1 = 0.85	1.38283	1.37972	1.37618	1.37323	1.37166	1.37023	1.3699	1.36831
303.15 K, x1 = 1	1.37917	1.37611	1.37261	1.36968	1.36815	1.36675	1.36643	1.36485
